Assay results published in patent US20080213377A1, “Delivery of Nanoparticles and/or Agents to Cells” (priority 2006, published 2008).
No end group written: not given here.

How the values were obtained:
[1] = test system: collagenase (Clostridiopeptidase A); experiment: Protease activation of nanoparticles (TAMRA dequenching), collagenase; assay type: biochemical; conditions: 25 μM; collagenase 20 μg/ml
Recombinant MMP-2 = molecular target: T1, Recombinant MMP-2 (Homo sapiens, UniProt P08253); experiment: Protease activation of nanoparticles (TAMRA dequenching), MMP-2; conditions: 25 μM; MMP-2 2.5 μg/ml
T1 sequence (P08253 110-660): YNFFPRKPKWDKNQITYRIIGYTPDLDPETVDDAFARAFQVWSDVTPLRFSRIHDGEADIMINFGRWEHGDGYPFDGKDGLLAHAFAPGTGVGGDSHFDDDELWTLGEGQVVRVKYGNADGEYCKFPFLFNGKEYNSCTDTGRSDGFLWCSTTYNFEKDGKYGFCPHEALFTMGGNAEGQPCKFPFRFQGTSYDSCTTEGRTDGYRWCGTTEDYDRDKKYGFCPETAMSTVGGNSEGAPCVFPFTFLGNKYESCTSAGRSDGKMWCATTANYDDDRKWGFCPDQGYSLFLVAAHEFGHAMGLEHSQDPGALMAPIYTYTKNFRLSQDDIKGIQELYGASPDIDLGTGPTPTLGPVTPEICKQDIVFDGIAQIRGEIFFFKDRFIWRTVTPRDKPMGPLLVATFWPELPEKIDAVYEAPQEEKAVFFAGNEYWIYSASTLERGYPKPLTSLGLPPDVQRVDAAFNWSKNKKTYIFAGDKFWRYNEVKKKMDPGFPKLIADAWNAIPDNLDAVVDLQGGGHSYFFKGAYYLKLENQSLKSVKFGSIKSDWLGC
Source text: Activation was monitored by the release of TAMRA quenching at an excitation of 515 nm and emission of 580 nm.

[2] = molecular target: Nucleolin on the surface of HeLa cells (UniProt P19338); experiment: cell-based or functional assay
HeLa cells = experiment: QD internalization in HeLa cell monolayers, flow cytometry (Example 8); assay type: cell-based; conditions: free peptide 1 μM to 1 mM added with 50 nM F3-QDs
Source text: After four hours, cells were washed with media, treated with trypsin (0.25%) and EDTA, and resuspended in 1% BSA (in PBS) for flow cytometry (BD FACSort, FL1 for EGFP signal and FL3 for QD signal). Fluorescence data on 10,000 cells were collected for each sample and the geometric mean of intensity was reported.

[3] = test system: Free MMP-2 cleavable peptide substrate NH2-G-K(TAMRA)-G-P-L-G-V-R-G-C-CONH2
[4] = test system: Peptide-PEG (MMP-2 cleavable L-AA substrate coupled to 10 kDa PEG) immobilized on dextran-coated iron oxide nanoparticles
Glioblastoma cells = experiment: Photoactivation of endosomal escape in glioblastoma cells; assay type: cell-based
Protocol: Fluorescein labeled CAR peptide ([…]) was synthesized using an ABI Model 433A peptide synthesizer from Biopolymers Laboratory, the MIT Center for Cancer Research. The peptide was cyclized by bubbling air into an aqueous solution of the peptide at 0.1 mg/ml overnight. Complete cyclization was confirmed by mass spectrometry and HPLC analysis.
Glioblastoma cells were obtained from the laboratory of Phil Sharp (MIT). The cyclized peptide (cCAR) was incubated with cells for 2 hours at 37° C. in complete culture medium (DMEM supplemented with serum, streptomycin, penicillin and fungizone). A monolayer of the cells was then rinsed with warm media three times. Microscopy photographs were taken after overnight incubation of the cells. For activation of photosensitizer, Arc lamp light from a microscope was irradiated onto the cells for two minutes.

Chain of Nucleolin on the surface of HeLa cells (P19338 2-710 limits assumed): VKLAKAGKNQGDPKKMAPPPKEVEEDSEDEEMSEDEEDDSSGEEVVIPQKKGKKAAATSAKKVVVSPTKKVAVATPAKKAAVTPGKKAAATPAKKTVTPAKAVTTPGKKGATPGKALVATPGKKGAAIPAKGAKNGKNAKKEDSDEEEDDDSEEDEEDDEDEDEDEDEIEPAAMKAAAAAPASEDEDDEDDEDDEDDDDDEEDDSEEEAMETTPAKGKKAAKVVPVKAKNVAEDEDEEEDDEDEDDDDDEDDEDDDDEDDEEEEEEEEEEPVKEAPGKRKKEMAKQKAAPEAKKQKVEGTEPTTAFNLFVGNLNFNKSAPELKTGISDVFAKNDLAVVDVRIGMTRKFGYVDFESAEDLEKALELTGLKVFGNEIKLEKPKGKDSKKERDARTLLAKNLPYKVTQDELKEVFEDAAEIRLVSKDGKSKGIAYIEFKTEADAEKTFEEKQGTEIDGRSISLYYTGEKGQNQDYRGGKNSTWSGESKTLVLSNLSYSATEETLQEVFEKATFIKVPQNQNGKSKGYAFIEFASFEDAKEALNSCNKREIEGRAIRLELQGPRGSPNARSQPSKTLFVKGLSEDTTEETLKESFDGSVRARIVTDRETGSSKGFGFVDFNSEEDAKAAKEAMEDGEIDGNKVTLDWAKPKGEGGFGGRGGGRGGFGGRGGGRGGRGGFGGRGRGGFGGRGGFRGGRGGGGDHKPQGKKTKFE

Compound: CNC(=O)[C@H](Cc1c[nH]c2ccccc12)NC(=O)[C@@H](CC(=O)NO)CC(C)C [Galardin]
- inhibition of nanoparticle activation (peptide-PEG cleavage) [1]: inhibits activation
- inhibition of nanoparticle activation (peptide-PEG cleavage) (Recombinant MMP-2): inhibits activation

Compound: F3-QD (F3 peptide C[Ahx]… conjugated to PEG-amino quantum dots)
- QD uptake by HeLa cells (flow cytometry) (orders of magnitude) [2]: 2

Compound: Lys-Ala-Arg-Glu-Cys (KAREC; printed: Lys-Ala-Arg-Glu-Cys) [KAREC peptide]
- inhibition of F3-QD uptake by free peptide (HeLa cells): minimal

Compound: Recombinant MMP-2
- Kcat/Km (cleavage of the substrate by MMP-2 over time, fluorescamine assay) [3]: 8.42 and 26.7 µM^-1 hr^-1 respectively
- Kcat/Km (cleavage of the substrate by MMP-2 over time, TAMRA dequenching) [4]: 8.42 and 26.7 µM^-1 hr^-1 respectively
- fold reduction of MMP-2 Kcat/Km against the free peptide [4]: reduces its associated MMP-2 Kcat/Km within a practical range, 3.2 fold

Compound: cyclic CAR peptide: Fluorescein labeled, cyclized CAR peptide (CARSKNKDC), binds heparan sulfate proteoglycans (also: fluorescein label, position not given here, cyclized, bond type not given here)
- internalization into cells (Glioblastoma cells; 2 hours at 37° C., without light irradiation): internalized
- endosomal escape upon light irradiation (Glioblastoma cells; Arc lamp light irradiation): distributed evenly inside cells
